Values joined by “and” are separate entries in the source; they are usually repeats but may differ in a detail not shown here. Identical values can stand only once.
Tested on: P. falciparum 3D7 growth, pLDH absorbance
Assay: blood-stage malaria parasite growth potency – strain 3D7, dose response (AID 2305)

Row | SMILES | IC50
1 | CS(=O)(=O)CCNCc1nc(-c2ccc3ncnc(Nc4ccc(OCc5cccc(F)c5)c(Cl)c4)c3c2)cs1 | 770 nM
2 | COC(=O)c1cccc(CNCc2cccc(-c3csc(-c4nc5ccccc5[nH]4)c3)c2)c1 | 690 nM
3 | CN(C)c1ccc2c(c1)Sc1cc(N(C)C)ccc1N2C(=O)CCCC(=O)O | 800 nM
4 | CCCCCCNC(=O)C1Cc2c([nH]c3ccc(F)cc23)C2(CCN(Cc3ccccc3)CC2)N1 (stereo not drawn) | 870 nM
5 | O=C(NCCN1CCCC1)N1CCCN(c2ncnc3cc(-c4ccc(F)cc4)sc23)CC1 | 900 nM
6 | CC(C)(C(=O)Nc1ccc(C2CCC(NCC3CC3)CC2)c(Cl)c1)c1ccc(C(F)(F)F)cc1 (stereo not drawn) | 960 nM
7 | O=S(=O)(c1cc(Cl)ccc1Cl)N1CCCCC(c2ccc(C(F)(F)F)cc2)=N1 | 1000 nM
8 | Nc1ccnc2ccc(NC(=O)CCCCCc3ccccc3)cc12 | 860 nM
9 | COc1cc(O)c2c(=O)c(OC)c(-c3cccc(Cl)c3OC3O[C@H](CO)[C@@H](O)[C@H](O)[C@H]3O)oc2c1OC (stereo partly drawn) | 770 nM
10 | COc1ccc(Cc2cnc3nc(N)nc(N)c3c2C)cc1 | 30 nM
11 | COc1cccc(-c2cccc(-c3ccc(NC(=O)c4ccc([N+](=O)[O-])o4)cc3)n2)c1 | 520 nM
12 | Cc1cc(NCCc2ccccc2)nc(/N=C(\N)Nc2ccc(Cl)cc2)n1 | 230 nM
13 | COc1ccc(NC(=O)c2cccc(Br)c2)cc1N1CCN(CCCCCCCN2CCN(c3cc(NC(=O)c4cccc(Br)c4)ccc3OC)CC2)CC1 | 180 nM
14 | CC(C)CCN1CCCN(Cc2ccc(C(=O)Nc3ccc(C(C)(C)C)cc3)cc2)CC1 | 870 nM
15 | Fc1ccc2nccc(NN=Cc3ccccc3Cl)c2c1 | 920 nM
16 | CNCCNCc1cccc(-c2ccc(-c3nc4ccccc4[nH]3)cc2)c1 | 740 nM
17 | NC(N)=NN=Cc1c2ccccc2c(Cl)c2ccc(Cl)cc12 | 230 nM
18 | CN1CCCC(CN2CCN(Cc3ccc(-c4ccc(-c5nc6ccc(F)cc6[nH]5)s4)cc3)CC2)C1 (stereo not drawn) | 130 nM
19 | Fc1ccc(-c2oc(C3CCN(CCc4ccc(-c5nc(=S)o[nH]5)cc4)CC3)nc2COCC(F)(F)F)cc1 | 420 nM
20 | CC1CCN(c2nc(C(=O)NCCc3ccc(Cl)c(Cl)c3)c(C(C)C)s2)CC1 | 1930 nM
21 | c1ccc(-c2ccc(CNCCCNc3nc4ccccc4[nH]3)cc2)cc1 | 780 nM
22 | O=C(Nc1ccccc1Cc1ccccc1)c1ccccc1C(F)(F)F | 780 nM
23 | COc1ccc2nccc([C@@H](O)CN3CCC(NCc4cc5ccccc5[nH]4)CC3)c2c1 | 1100 nM
24 | O=C(Nc1cccc(-c2ccc(-c3nc4ccccc4[nH]3)cc2)c1)c1cnn2cccnc12 | 1060 nM
25 | CC(C)(C)c1cc(C(=O)Nc2cccnc2)cc(C(=O)Nc2cccnc2)c1 | 760 nM

Row | SMILES | IC50
26 | CC(CN(C)C)C(=O)Nc1cccc(-c2cccc(-c3nc4ccccc4[nH]3)c2)c1 (stereo not drawn) | 1060 nM
27 | O=C(Nc1ccc(Cn2ncc(N3CCCNCC3)c(Cl)c2=O)cc1)Nc1cccc(Oc2ccccc2)c1 | 990 nM
28 | CCOc1ccc2c(NN=Cc3ccccn3)cc(C)nc2c1 | 860 nM
29 | COc1cccc(CNC[C@@H](O)[C@H](Cc2ccccc2)NC(=O)c2cc3c4c(c2)c(C(C)C)cn4CCS(=O)(=O)N3C)c1 | 150 nM
30 | NCc1ccc(CNCc2cccc(-c3cccc(-c4nc5ccccc5[nH]4)c3)c2)cc1 | 490 nM
31 | O=C(Nc1ccc(Cl)cc1)Nc1ccc(-c2csc(-c3nc4ccccc4[nH]3)c2)cc1 | 800 nM
32 | CN1CCN(c2ccnc3ccc(NC(=O)Nc4cccc5c(C#N)cccc45)cc23)CC1 | 1050 nM
33 | NC1=NC(CCc2ccccc2)N(c2ccc(Cl)cc2)C(N)=N1 (stereo not drawn) | 40 nM
34 | O=C(Nc1ccc(OC2CCN(Cc3ccsc3)CC2)c(Cl)c1)c1ccco1 | 780 nM
35 | Cc1nc(N)nc(N)c1-c1ccc2ccccc2c1 | 870 nM
36 | COc1ccc2nccc([C@@H](O)CN3CCC(NCc4cc5oc(=O)[nH]c5cc4Cl)CC3)c2c1 | 380 nM
37 | CCCCCC(=O)N1CCOC(CCN2CCc3c(c4ccccc4n3C)C2)(c2ccc(Cl)c(Cl)c2)C1 (stereo not drawn) | 980 nM
38 | Nc1cccc(CNCc2cccc(-c3ccc(-c4nc5ccccc5[nH]4)s3)c2)c1 | 600 nM
39 | CC(=O)c1ccc(NC(=O)Nc2ccc3nccc(N4CCN(C)CC4)c3c2)cc1 | 430 nM
40 | O=C(NCCCCN1CCC(c2ccc3c(c2OCCN2CCCC2=O)CCCC3)CC1)c1ccc(-c2ccc(C(F)(F)F)cc2)cc1 | 1520 nM
41 | c1ccc2ncc(CNCCCCCCCCNCc3cnc4ccccc4c3)cc2c1 | 850 nM
42 | COc1cc(NC(=O)c2ccc3oc4ccccc4c3c2)ccc1OCCN1CCCCC1 | 920 nM
43 | Cc1cc(F)ccc1Nc1nc(N(C)c2ccccc2)c2cc(OCCCN(C)C)ccc2n1 | 720 nM
44 | COc1ccc2c(c1)[nH]c1c(/C=C/c3ccc([N+](=O)[O-])cc3)nccc12 | 860 nM
45 | O=C(Nc1cccc(-c2nn3ccccc3c2-c2ccnc(Nc3cccc(-c4cnco4)c3)n2)c1)C1CCCCC1 | 260 nM
46 | COC(=O)C(NC(=O)NC1CCN(c2ccnc(Nc3ccc(F)cc3)n2)C1)c1ccccc1 (stereo not drawn) | 1050 nM
47 | CN1CCC(C(=O)Nc2cccc(-c3cccc(-c4nc5ccc(F)cc5[nH]4)c3)c2)CC1 | 690 nM
48 | O=C(/C=C/c1ccc(Cl)c(Cl)c1)NCCCCCN1CCC(NC(=O)c2ccc(F)cc2)CC1 | 710 nM
49 | Cc1nc(C)n(CC(=O)Nc2cccc(-c3cccc(-c4nc5ccc(C(F)(F)F)cc5[nH]4)c3)c2)n1 | 760 nM
50 | O=C(Nc1ccc(N2CCN(C(=O)C=Cc3ccccc3)CC2)c(Cl)c1)c1ccc([N+](=O)[O-])o1 | 860 nM

Row | SMILES | IC50
51 | CN(Cc1ccccc1)C(=O)c1nn(CCCN2CCC(N3CCCC3)CC2)cc1-c1ccc(Cl)c(Cl)c1 | 770 nM
52 | COc1ccc(CN2CCC(NCc3cccc(-n4ccnc4)c3)CC2)cc1 | 630 nM
53 | Cc1nc2ccc3ccc(CNc4ccc(C(=O)N[C@@H](CCC(=O)O)C(=O)O)c(F)c4)cc3c2c(=O)[nH]1 | 400 nM
54 | Cc1ccc(NC(=O)c2ccc3ncccc3c2)cc1OC1CCN(Cc2ccc(F)cc2)C1 (stereo not drawn) | 1360 nM
55 | CC[C@H]1CN2CC[C@H]1C[C@@H]2[C@@H](O)c1ccnc2ccccc12 | 280 nM
56 | O=C(Cn1c(CCc2cccc(F)c2F)cc(=O)c2cccnc21)N(CCn1ccnc1)Cc1ccc(-c2ccc(C(F)(F)F)cc2)cc1 | 670 nM
57 | COc1ccc(CN2CCC(CNCCc3c(Cl)cccc3Cl)CC2)cc1 | 430 nM
58 | CCN(CC)CCNC(=O)c1ccc(Nc2ncc([N+](=O)[O-])c(Nc3ccccc3OC)n2)cc1 | 140 nM
59 | Cc1cc(Nc2ncc(Cl)c(Nc3ccccc3C(N)=O)n2)n[nH]1 | 810 nM
60 | COc1cccc(NC(=O)[C@H](C)n2c(=O)[nH]c3ccccc3c2=O)c1 | 760 nM
61 | Fc1ccc2[nH]cc(CCN3CCC(CNCc4ccccc4)CC3)c2c1 | 30 nM
62 | O=C(Nc1ccc(Cl)cc1)N[C@H]1CCN(CCCCCNC(=O)[C@@H]2C[C@H]2c2ccc(Cl)c(Cl)c2)C1 | 870 nM
63 | COc1ccccc1Cc1nc2ccccc2nc1SCC(=O)Nc1cccc(C(F)(F)F)c1 | 500 nM
64 | CN(C)CCNC(=O)c1csc(Nc2ccc(Cl)c(Cl)c2)n1 | 220 nM
65 | NC(N)=Nc1cccc(NC(=O)Nc2cccc(N=C(N)N)c2)c1 | 260 nM
66 | CCCCN1CC[C@@H](CCC(O)c2cc(OCCC)nc3ccc(OC)cc23)[C@@H](CC)C1 (stereo partly drawn) | 360 nM
67 | Cc1cc(N[C@@H](Cc2ccccc2)C(=O)Nc2ccccc2)nc(NCCN2CCCC2)n1 | 1810 nM
68 | CO[C@@H]1C[C@@H](C(=O)Nc2ccccc2)N(c2ccc(C#N)c3ccccc23)C1 | 910 nM
69 | O=C(Nc1cccnc1)c1cc(-c2cccnc2)nc2ccc(Br)cc12 | 640 nM
70 | CN(C)CCOc1cc(NC(=O)Nc2ccc(-c3ccncc3)c(C(F)(F)F)c2)ccc1Cl | 990 nM
71 | Oc1ccc(CCNCc2ccc(OCc3ccccc3)c(OCc3ccccc3)c2)cc1 | 1510 nM
72 | Nc1nc(Nc2cccc(O)c2)nc2ccccc12 | 790 nM
73 | CCOc1ccc(-c2nonc2NC(=O)c2ccco2)cc1OCC | 750 nM
74 | CN(c1ccc(NC(=O)Nc2cc(C(C)(C)C)on2)cc1)c1ccnc(NCCOC(=O)Nc2cc(C(C)(C)C)on2)n1 | 750 nM
75 | COc1ccccc1CNC(=O)c1cc(C2CC2)nc2c1cnn2C(C)C | 1020 nM

Row | SMILES | IC50
76 | O=C(Nc1cccc2ccccc12)N1CCc2cc3nccc(N4CCN5CCC[C@H]5C4)c3cc21 | 890 nM
77 | CCOc1cc(Cc2cnc(N)nc2N)cc(OCC)c1-n1cccc1 | 760 nM
78 | CC(C)C[C@H](NC(=O)c1cc2ccccc2s1)C(=O)N[C@H]1CCN(Cc2ccc(I)c(OC3CCN(C)C3)c2)C1 (stereo partly drawn) | 920 nM
79 | O=C1Nc2cccc3c2C1(CCCCN1CCC(c2c(-c4ccccc4)[nH]c4ccccc24)CC1)CCC3 (stereo not drawn) | 1200 nM
80 | O=C(/C=C/c1ccc(Cl)c(Cl)c1)N1CCC(CNCc2cccc3cc[nH]c23)CC1 | 1220 nM
81 | Cc1nnc(Sc2ncnc3scc(-c4ccc(F)cc4)c23)s1 | 810 nM
82 | CCOc1ccccc1NC(=O)Nc1ccc2c(c1)CCN(C1CCC1)CC2 | 1110 nM
83 | Fc1ccc(C=NNc2ccnc3ccc(C(F)(F)F)cc23)cc1 | 1100 nM
84 | COc1ccc2c(NN=Cc3ccc(F)cc3)cc(C)nc2c1 | 770 nM
85 | C=CCOC(=O)N1CCC(CNCc2cccc(-c3ccc(-c4nc5c(C)cccc5[nH]4)s3)c2)C1 (stereo not drawn) | 250 nM
86 | Cc1cc(N)nc2ccc(-c3ccc(CCN)cc3)cc12 | 620 nM
87 | C=C1C[C@@H](n2cnc3c(NC(=O)c4ccccc4)ncnc32)[C@@H](F)[C@@H]1OC(c1ccccc1)(c1ccccc1)c1ccccc1 | 140 nM
88 | COCCNCc1ncsc1-c1ccc2c(Nc3cc(O)ccc3C)ccnc2c1 | 700 nM
89 | Cc1cc(NN=Cc2cccc([N+](=O)[O-])c2)c2ccc(F)cc2n1 | 690 nM
90 | CCn1cc(C=C2Oc3c(ccc(O)c3CN3CCCCC3C)C2=O)c2ccccc21 (stereo not drawn) | 1020 nM
91 | COc1cc(NCC(C)CNCc2cn(Cc3ccccc3)c3ccccc23)nc2ccccc12 (stereo not drawn) | 630 nM
92 | CCN(CC)CCn1c(=N)n(CC(=O)c2ccc(-c3ccccc3)cc2)c2ccccc21 | 1140 nM
93 | Cc1cccc2[nH]c(-c3cccc(-c4cccc(NC(=O)c5cncn5C)c4)c3)nc12 | 170 nM
94 | COc1cc2nccc(Nc3ccc4c(cnn4Cc4ccccc4F)c3)c2cc1OC | 400 nM
95 | O=C(N[C@@H](Cc1ccccc1)C(=O)NC1CCCCCC1)c1ccc(O)c(-c2cccc(C(F)(F)F)c2)c1 | 730 nM
96 | O=C(NCCCCN1CCCC2c3ccc(O)cc3CCC21)c1ccc(-c2ccccc2)cc1 (stereo not drawn) | 730 nM and 940 nM
97 | CCCCC(=O)NC(c1cccs1)c1cc(Cl)c2cccnc2c1O (stereo not drawn) | 380 nM
98 | CC(C)CC(NC(=O)c1cccc(OCCN2CCOCC2)c1)C(=O)NC(/C=N/NC(=O)c1ccccc1)CCc1ccccc1 (stereo not drawn) | 250 nM

Reference: PubChem BioAssay AID2305 (GlaxoSmithKline (GSK), 2010)
